Consider 13 compounds from patent US9809582B2, “Aminoester derivatives” (CHIESI FARMACEUTICI S.p.A., priority 2015, dated 2017).

Read-outs that look alike come from different tables or passages of the source.

One assay has as its target Human M3 receptor (Homo sapiens (Human), UniProt P20309). The experiment in a line: M3 receptor radioligand binding assay. The protocol:
M3 Receptor Radioligand Binding Assay:
The assay is carried out in 96-well polypropylene plates in a volume of 250 μl. […] The final assay concentration of DMSO is 0.5% (v/v). The plates are sealed and incubated for 2 h at room temperature on an orbital shaker (slow speed). Membranes are harvested onto 96-well unifilter GF/C filter plates pre-treated with 0.5% polyethyleneimine (v/v), using a filter manifold, washed four times with […] of assay buffer. The plates are dried before addition of 50 μl of microscint-0, sealed then read in a Trilux Microbeta scintillation counter. IC50 values are determined from competition curves using a non-linear curve fitting program. Ki values are calculated from IC50 values by the Cheng and Prusoff equation.

In another assay the target is Human recombinant PDE4B2 (Homo sapiens (Human), UniProt Q07343). As to the kind of experiment: PDE4B2 HTRF assay. In kind it is biochemical. The procedure:
PDE4B2 activity is detected using the LANCE Ultra cAMP homogeneous time resolved fluorescence resonance energy transfer (TR-FRET) assay from Perkin Elmer. The assay is based on the competition between the europium (Eu) chelate-labeled cAMP tracer and sample cAMP for binding sites on cAMP-specific monoclonal antibodies (mAb) labelled with the ULight™ dye. The assay is carried out in 384-well low volume plates in a volume of 10 μl. Human recombinant PDE4B2 (80 pM) is incubated for 2 h with 3 nM cAMP in buffer containing 1×HBSS, 5 mM HEPES, 3 mM MgCl2, 0.1% BSA, pH 7.4 with or without test compounds. The enzymatic reactions are efficiently stopped by the addition of 500 μM IBMX present in the combined Stop/Detection buffer containing europium (Eu) chelate-labeled cAMP tracer and cAMP-specific monoclonal antibodies (mAb) labelled with the ULight™ dye. […] IC50 values are determined from competition curves using a non-linear curve fitting program.
For orientation: In TR-FRET formats the signal depends on donor and acceptor labels being close together.

The conditions of assay [1]: cited from earlier work.
The mark [2] stands for this setting: M3 Receptor radioligand binding assay, read-out: M3 IC50 Activity.
Setting [3] is: PDE4B2 HTRF assay, read-out: PDE4B2 IC50 Activity.
Setting [4] is: patients with severe disease, frequent exacerbations and mucus hypersecretion.

Chain of Human M3 receptor (P20309 whole entry): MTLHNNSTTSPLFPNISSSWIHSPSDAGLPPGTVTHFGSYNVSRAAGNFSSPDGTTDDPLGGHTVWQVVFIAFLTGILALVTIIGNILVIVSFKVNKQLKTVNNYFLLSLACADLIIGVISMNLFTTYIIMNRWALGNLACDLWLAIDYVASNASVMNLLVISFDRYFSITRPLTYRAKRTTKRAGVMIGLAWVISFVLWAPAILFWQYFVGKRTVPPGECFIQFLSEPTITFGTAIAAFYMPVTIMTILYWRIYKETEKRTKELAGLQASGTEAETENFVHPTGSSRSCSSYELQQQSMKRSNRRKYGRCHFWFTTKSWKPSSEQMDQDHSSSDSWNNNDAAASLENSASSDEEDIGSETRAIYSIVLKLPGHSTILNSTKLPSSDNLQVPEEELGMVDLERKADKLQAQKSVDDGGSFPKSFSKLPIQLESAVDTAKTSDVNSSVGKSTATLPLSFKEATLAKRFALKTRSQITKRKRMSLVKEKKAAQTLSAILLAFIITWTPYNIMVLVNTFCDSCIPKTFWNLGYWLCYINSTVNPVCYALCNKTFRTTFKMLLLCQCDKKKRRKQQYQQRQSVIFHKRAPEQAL
Chain of Human recombinant PDE4B2 (Q07343 other isoform, or with tags, fused parts or gaps): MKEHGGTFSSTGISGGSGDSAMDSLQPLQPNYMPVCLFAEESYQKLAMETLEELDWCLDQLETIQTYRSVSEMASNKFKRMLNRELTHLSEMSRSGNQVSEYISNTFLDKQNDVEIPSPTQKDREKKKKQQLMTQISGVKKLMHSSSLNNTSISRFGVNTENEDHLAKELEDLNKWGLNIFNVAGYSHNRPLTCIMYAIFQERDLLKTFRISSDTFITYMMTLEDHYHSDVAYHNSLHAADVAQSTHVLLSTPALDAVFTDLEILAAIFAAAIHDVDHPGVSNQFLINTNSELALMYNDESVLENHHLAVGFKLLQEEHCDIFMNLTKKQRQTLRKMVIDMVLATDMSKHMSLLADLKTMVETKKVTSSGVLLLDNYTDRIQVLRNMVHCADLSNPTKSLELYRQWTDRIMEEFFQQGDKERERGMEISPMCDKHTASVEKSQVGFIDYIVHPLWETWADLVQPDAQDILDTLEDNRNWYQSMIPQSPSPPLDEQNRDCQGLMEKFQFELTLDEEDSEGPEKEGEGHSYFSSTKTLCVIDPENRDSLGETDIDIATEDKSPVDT

As a reminder, the IC50 is the midpoint of a concentration-inhibition curve. For the compound `COc1ccc([C@H](Cc2c(Cl)c[n+]([O-])cc2Cl)OC(=O)c2ccc(CN(C)CC(C)(C(=O)O[C@H]3CN4CCC3CC4)c3ccccc3)s2)cc1OC` (stereo partly drawn) [Example 10, [(1S)-2-(3,5-dichloro-1-oxido-pyridin-1-ium-4-yl)-1-(3,4-dimethoxyphenyl)ethyl]-5-[[methyl-[2-methyl-3-oxo-2-phenyl-3-[(3R)-quinuclidin-3-yl]oxy-propyl]amino]methyl]thiophene-2-carboxylate], the IC50 on Human M3 receptor (M3 IC50 Activity) and at Human recombinant PDE4B2 was 1 to 10 nM in each case.
With `COc1ccc([C@H](Cc2c(Cl)c[n+]([O-])cc2Cl)OC(=O)c2ccc(CN3CCC(C(=O)O[C@H]4CN5CCC4CC5)(c4ccccc4)CC3)cc2)cc1OC` [Example 11, [(3R)-quinuclidin-3-yl]-1-[[4-[(1S)-2-(3,5-dichloro-1-oxido-pyridin-1-ium-4-yl)-1-(3,4-dimethoxyphenyl)ethoxy]-carbonylphenyl]methyl]-4-phenyl-piperidine-4-carboxylate], the IC50 lay within 10 to 100 nM at Human M3 receptor (M3 IC50 Activity) and 1 to 10 nM at Human recombinant PDE4B2.
On to `COc1ccc([C@H](Cc2c(Cl)c[n+]([O-])cc2Cl)OC(=O)c2ccc(CCN3CCC(C(=O)O[C@H]4CN5CCC4CC5)(c4ccccc4)CC3)cc2)cc1OC` [Example 12, [(3R)-quinuclidin-3-yl]-1-[2-[4-[(1S)-2-(3,5-dichloro-1-oxido-pyridin-1-ium-4-yl)-1-(3,4-dimethoxyphenyl)ethoxy]carbonylphenyl]ethyl]-4-phenyl-piperidine-4-carboxylate], for which the IC50 at Human M3 receptor (M3 IC50 Activity) and at Human recombinant PDE4B2 was 1 to 10 nM in each case.
On to `COc1ccc([C@H](Cc2c(Cl)c[n+]([O-])cc2Cl)OC(=O)c2ccc(CN3CC(C(=O)O[C@@H]4CCN(C)C4)(c4ccccc4)C3)s2)cc1OC` [Example 16, [(3R)-1-methylpyrrolidin-3-yl] 1-[[5-[(1S)-2-(3,5-dichloro-1-oxido-pyridin-1-ium-4-yl)-1-(3,4-dimethoxyphenyl)ethoxy]carbonyl-2-thienyl]methyl]-3-phenyl-azetidine-3-carboxylate], for which the IC50 on Human M3 receptor (setting [2]) and on Human recombinant PDE4B2 (setting [3]) was 1 to 10 nM throughout.
Consider `COc1ccc([C@H](Cc2c(Cl)c[n+]([O-])cc2Cl)OC(=O)c2ccc(CNCC(C(=O)OCCN(C)C)c3ccccc3)s2)cc1OC` (stereo partly drawn) [Example 22, [(1S)-2-(3,5-dichloro-1-oxido-pyridin-1-ium-4-yl)-1-(3,4-dimethoxyphenyl)ethyl] 5-[[[3-(2-dimethylaminoethyloxy)-3-oxo-2-phenyl-propyl]amino]methyl]thiophene-2-carboxylate], for which the IC50 on Human M3 receptor (setting [2]) and at Human recombinant PDE4B2 (setting [3]) was 1 to 10 nM throughout.
For the compound `COc1ccc([C@H](Cc2c(Cl)c[n+]([O-])cc2Cl)OC(=O)c2ccc(CNCC(C)(C(=O)OC3CCN(C)CC3)c3ccccc3)s2)cc1OC` (stereo partly drawn) [Example 25, [(1S)-2-(3,5-dichloro-1-oxido-pyridin-1-ium-4-yl)-1-(3,4-dimethoxyphenyl)ethyl] 5-[[[2-methyl-3-[(1-methyl-4-piperidyl)oxy]-3-oxo-2-phenyl-propyl]amino]methyl]thiophene-2-carboxylate], the IC50 at Human M3 receptor (setting [2]) was in the range of 10 to 100 nM; on Human recombinant PDE4B2 (setting [3]), 1 to 10 nM.
`COc1ccc([C@H](Cc2c(Cl)c[n+]([O-])cc2Cl)OC(=O)c2ccc(CN(C)CC(C)(C(=O)O[C@H]3CN4CCC3CC4)c3ccccc3)s2)cc1OC` (stereo partly drawn) [Example 26, [(1S)-2-(3,5-dichloro-1-oxido-pyridin-1-ium-4-yl)-1-(3,4-dimethoxyphenyl)ethyl] 5-[[methyl-[2-methyl-3-oxo-2-phenyl-3-[(3R)-quinuclidin-3-yl]oxy-propyl]amino]methyl]thiophene-2-carboxylate]: the IC50 on Human M3 receptor (read-out: M3 IC50 Activity) and at Human recombinant PDE4B2 (read-out: PDE4B2 IC50 Activity) was 1 to 10 nM throughout.
Regarding `COc1ccc([C@H](Cc2c(Cl)c[n+]([O-])cc2Cl)OC(=O)c2ccc(CNCC(C)(C(=O)OCCN(C)C)c3ccccc3)s2)cc1OC` (stereo partly drawn) [Example 29, [(1S)-2-(3,5-dichloro-1-oxido-pyridin-1-ium-4-yl)-1-(3,4-dimethoxyphenyl)ethyl] 5-[[[3-(2-dimethylaminoethyloxy)-2-methyl-3-oxo-2-phenyl-propyl]amino]methyl]thiophene-2-carboxylate], the IC50 on Human M3 receptor (setting [2]) lay in the range of 10 to 100 nM; on Human recombinant PDE4B2 (setting [3]) it was 1 to 10 nM.
For `COc1ccc([C@H](Cc2c(Cl)c[n+]([O-])cc2Cl)OC(=O)c2ccc(CNCC(C)(C(=O)O[C@H]3CN4CCC3CC4)c3ccccc3)s2)cc1OC` (stereo partly drawn) [Example 31, [(1S)-2-(3,5-dichloro-1-oxido-pyridin-1-ium-4-yl)-1-(3,4-dimethoxyphenyl)ethyl] 5-[[[2-methyl-3-oxo-2-phenyl-3-[(3R)-quinuclidin-3-yl]oxy-propyl]amino]methyl]thiophene-2-carboxylate], the figures for the IC50 at Human M3 receptor (M3 IC50 Activity) and at Human recombinant PDE4B2 were 10 to 100 nM and 1 to 10 nM, respectively.
In the case of `COc1ccc([C@H](Cc2c(Cl)c[n+]([O-])cc2Cl)OC(=O)c2ccc(CNC3CC(C(=O)OC4CCN(C)CC4)(c4ccccc4)C3)s2)cc1OC` (stereo partly drawn) [Example 32, [(1S)-2-(3,5-dichloro-1-oxido-pyridin-1-ium-4-yl)-1-(3,4-dimethoxyphenyl)ethyl] 5-[[[3-[(1-methyl-4-piperidyl)oxycarbonyl]-3-phenyl-cyclobutyl]amino]methyl]-thiophene-2-carboxylate], the IC50 is 10 to 100 nM at Human M3 receptor (setting [2]) and under 1 nM on Human recombinant PDE4B2 (setting [3]).
For `COc1ccc([C@H](Cc2c(Cl)c[n+]([O-])cc2Cl)OC(=O)c2ccc(CNC3CC(C(=O)O[C@H]4CN5CCC4CC5)(c4ccccc4)C3)s2)cc1OC` (stereo partly drawn) [Example 33, [(1S)-2-(3,5-dichloro-1-oxido-pyridin-1-ium-4-yl)-1-(3,4-dimethoxyphenyl)ethyl] 5-[[[3-phenyl-3-[(3R)-quinuclidin-3-yl]oxycarbonyl-cyclobutyl]amino]methyl]thiophene-2-carboxylate], the IC50 on Human M3 receptor (M3 IC50 Activity) and at Human recombinant PDE4B2 was 1 to 10 nM in each case.
On to `COc1ccc([C@H](Cc2c(Cl)c[n+]([O-])cc2Cl)OC(=O)c2ccc(CNC3CC(C(=O)O[C@H]4CN5CCC4CC5)(c4ccccc4)C3)s2)cc1OC` (stereo partly drawn) [Example 37, [(1S)-2-(3,5-dichloro-1-oxido-pyridin-1-ium-4-yl)-1-(3,4-dimethoxyphenyl)ethyl] 5-[[[3-phenyl-3-[(3R)-quinuclidin-3-yl]oxycarbonyl-cyclobutyl]amino]methyl]thiophene-2-carboxylate], for which the IC50 at Human M3 receptor (read-out: M3 IC50 Activity) and on Human recombinant PDE4B2 (read-out: PDE4B2 IC50 Activity) was 1 to 10 nM in each case.
As to `O=C(Nc1c(Cl)cncc1Cl)c1ccc(OC(F)F)c(OCC2CC2)c1` [roflumilast], the “reduction of the numbers of neutrophils in sputum” value in assay [1] (COPD patients, oral, given over four weeks) was 36%. Also, in assay [1] (setting [4]), the “improvement of FEV 1” value was “approximately 50 mL” and the reduction of exacerbation result is on record as “about 15%”.
